# In US11179409B2, “Cucurbitane tetracyclic triterpenoid compounds for application in treating pulmonary fibrosis” (CHENGDU BIOPURIFY LTD., priority 2015, dated 2021):
# What was measured:
# [1] = test system: bleomycin-induced pulmonary fibrosis model mice; test: Bleomycin-induced mice pulmonary fibrosis model (tracheal bleomycin, stomach perfusion of drug); type: in vivo; details: for No. of neutrophils in bronchoalveolar lavage fluid / Total No. of cells in bronchoalveolar lavage fluid: n = 5; for Lung tissue fibrosis degree (Masson staining) compared with model group: mice killed on day 28; for Lung coefficients compared with model group: day 28 after modeling, FIG. 7
# [2] = test system: TGF-β1-induced human alveoli type II epithelial cells (A549); test: α-SMA expression (Western blot) in TGF-β1-induced A549 epithelial-mesenchymal transition; type: cell-based; details: TGF-β1 5 ng/mL, culture 48 hours, concentration of 50 μM, FIG. 5
# Description: Alveolar epithelial cells can obtain mesenchymal cell phenotypes through an epithelial cell-mesenchyme transformation (EMT) process to serve as an important source of myofibroblast and muscle fiber metrocyte. In this new mode, epithelial cell-mesenchyme transformation of pulmonary alveoli should be considered as one of key links of fibrosis. In mature cells, injury can induce transformation of epithelial cells into mesenchymal cell phenotype, thus facilitating the fibrosis of many organs. Fibroblasts and muscle fiber metrocytes differentiated from epithelial cells often change through form (for example, change from a cubical cell form to a strip form or a fusiform), obtaining of specific marker of the fibroblast or the muscle fiber metrocyte (for example, α-SMA) and loss of the epithelial character marker (for example, epithelial cell cadherin (E-cadherin and closely linked protein) are fussed together with these epithelial tissues. Through an in-vitro test, A549 cells are induced with TGF-β1 to generate epithelial cell-mesenchyme transformation (EMT), the α-SMA expression level of actin is analyzed adopting a Western blot method, and study meaning of mogroside IIIe on pathogensis of pulmonary fibrosis in a signal transduction pathway of an EMT process is discussed. […]
# [3] = test system: bleomycin-induced pulmonary fibrosis model mice; test: Bleomycin-induced mice pulmonary fibrosis model (tracheal bleomycin, stomach perfusion of drug); type: in vivo; details: for Body weights compared with model group / Lung coefficients (lung weight mg/body weight g) compared with model group: high-dose and low-dose mogroside IIIe groups, prednisone acetate 6.67 mg/kg/d, P<0.01; for Body weights compared with model group: after 14 and 28 days of administration, FIG. 1; for Lung coefficients (lung weight mg/body weight g) compared with model group: after administration for 14 days and 28 days, FIG. 2; for Lung tissue fibrosis degree (Masson staining) compared with model group: lung section on day 28, FIG. 3
# Description: The above mogroside IIIe is selected to be subjected to in-vivo pharmacodynamical research. Injection of a bleomycin-induced mice pulmonary fibrosis model is a commonly used method in the world, and such model is similar to a human pulmonary interstitial fibrosis model.
# 100 male ICR mice with a body weight of 25-30 g are provided by Comparative Medicine Center of Yangzhou University.
# 20 mice are used as a blank control group (control group in FIG. 1), and the other 80 mice are used for modeling. All the above mice are anesthetized by virtue of intraperitoneal injection of 4% chloral hydrate, with injection volume of 10 ml/kg. After anesthesia, each mouse is fixed and the neck of the mouse is disinfected; the skin of its neck is cut longitudinally with scissors to expose the trachea; the syringe is inserted into the trachea. The mice in the blank control group are injected with normal saline, and the remaining mice are injected with bleomycin (5 mg/kg); then the mouse plate is quickly erected and rotated, and the wound of each mouse is sutured after observing the breathing condition of the mouse, and 1-2 drops of penicillin injection are dropped at the suture. The postoperative mouse is placed back in a dry and clean mouse cage for rest, and then is normally fed after it revives approximately 1-2 h later.
# Starting from the day 7 after modeling, the other 80 mice are randomly divided into a model group, a positive drug (prednisone acetate) group, a high-dose mogroside IIIe (50 mg/kg, mogroside IIIe-H) group, a low-dose mogroside IIIe group (10 mg/kg, mogroside IIIe-L), 20 mice in each group.
# The mice in the blank control group and the model group are subjected to stomach perfusion with normal saline every day, the mice in the positive drug group are subjected to stomach perfusion with 6.67 mg/kg/d prednisone acetate, the mice in the high-dose/low-dose mogroside IIIe groups are subjected to stomach perfusion with 50 mg/kg/d and 10 mg/kg/d respectively for continuous 28 days, and are killed on the day 14 and the day 28. The each mouse is recorded in body weight, the lung tissue is taken out via dissection, cleaned with ice normal saline, sucked dry with absorbent paper and weighed, and then a lung coefficient is calculated, i.e., lung coefficient=lung weight (mg)/body weight (g). The left lung is put into 4% neutral formaldehyde for fixation, gradually dehydrated with alcohol, transparentized with xylene, immersed in wax, embedded in paraffin, then routinely sectioned and subjected to Masson staining, so that the lung tissue morphology, lung injury condition and pulmonary fibrosis degree are observed. Other lung lobes are individually stored for determination of HYP content.
# All data are expressed as mean±SD(x±s). SPSS 11.5 statistical software is used for processing. Statistical analysis is performed using one-way ANOVA. P<0.05 represents this group has statistical significance.
# For mice lung tissue injury caused by bleomycin, the number of leukocytes is increased, especially neutrophil infiltration causes alveolar inflammation, and inflammatory cells release inflammatory mediators NO, TNF-α and various cytokines, thereby on one hand, aggravating lung tissue injury and on the other hand promoting excessive increase of collagen through various growth factors. This experiment is performed in accordance with requirement specification of a kit. The number of leukocytes in the bronchoalveolar lavage fluid of the mice in each group is detected by a colorimetric method on the day 14 (as shown in Table 1). Neutrophils and lymphocytes are obviously accumulated in the bronchoalveolar lavage fluid of the mice on the day 14 after treatment with bleomycin (BLM).
# Hydrooxyproline (HPY) is an amino acid obtained through protein hydrolysis of connective tissues, accounts for about 14% of the weight of collagen and plays a crucial role in stability of collagen. […]
# [4] = test system: LPS-induced RAW264.7 cells; test: NO level in LPS-induced RAW264.7 cells; type: cell-based, mice; details: within a range of 10-100 μM
# [5] = Example 3, Table 3, 50 mg/kg high-dose group, day 14, vs model group
# [6] = Example 3, mogrol 50 mg/kg and 20 mg/kg, prednisone acetate 7.0 mg/kg/d, FIG. 9
# [7] = Example 1, Table 1, 50 mg/kg high-dose group, day 14, mean±SD, *P<0.05 vs model group
# [8] = Example 1, on the 28 d after administration, P<0.05 or P<0.01
# [9] = Example 2, Table 2, 50 mg/kg high-dose group, day 14, *P<0.05 vs model group
# [10] = Example 2, mogroside IVe 50 mg/kg and 20 mg/kg, prednisone acetate 6.67 mg/kg/d, after administration for 14 days and 28 days, P<0.01, FIG. 6
# [11] = Example 2, mogroside IVe 50 mg/kg and 20 mg/kg, prednisone acetate 6.67 mg/kg/d, P<0.01
SMILES,"Body weights compared with model group [1, 6]",Body weights compared with model group ([3]; Example 1),Lung coefficients (lung weight mg/body weight g) compared with model group ([3]; Example 1),Lung tissue fibrosis degree (Masson staining) compared with model group ([3]; Example 1),"Lung tissue fibrosis degree (Masson staining) compared with model group ([1]; Example 2, FIG. 8)","Body weights compared with model group [1, 10]","Lung coefficients compared with model group [1, 11]",other results
C[C@H](CC[C@@H](O)C(C)(C)O)[C@H]1CC[C@@]2(C)[C@@H]3CC=C4[C@@H](CC[C@H](O)C4(C)C)[C@]3(C)[C@H](O)C[C@]12C [mogrol],obviously increased,–,–,–,–,–,–,"No. of neutrophils in bronchoalveolar lavage fluid [1, 5]: 4.16 ± 4.26 ×10^4; Total No. of cells in bronchoalveolar lavage fluid [1, 5]: 34.72 ± 17.83 ×10^4; Lung tissue fibrosis degree (Masson staining) compared with model group ([1]; Example 3, high-dose/low-dose mogrol (50, 20 mg/kg), FIG. 10): fibroblast hyperplasia degree is lower than that in the model group; Lung index compared with model group ([1]; Example 3, high-dose/low-dose mogrol groups): obviously reduce lung index"
C[C@H](CC[C@@H](O[C@@H]1O[C@H](CO)[C@@H](O)[C@H](O)[C@H]1O[C@@H]1O[C@H](CO)[C@@H](O)[C@H](O)[C@H]1O)C(C)(C)O)[C@H]1CC[C@@]2(C)[C@@H]3CC=C4[C@@H](CC[C@H](O[C@@H]5O[C@H](CO)[C@@H](O)[C@H](O)[C@H]5O)C4(C)C)[C@]3(C)[C@H](O)C[C@]12C [mogroside IIIe],–,obviously increased,obviously decreased,fibroblast hyperplasia degree is lower than that in the model group,–,–,–,"α-SMA expression caused by TGF-β1 [2]: significantly inhibit; Number of neutrophils in bronchoalveolar lavage fluid [1, 7]: 4.28 ± 4.52*; Content of HYP in lung tissue compared with model group ([1]; Example 1, 50 mg/kg, day 28, digestion method, P<0.05, FIG. 4): obviously reduce the content of HYP; Content of TGF-β1 compared with model group [1, 8]: significantly lower than those in the model group; Total number of cells in bronchoalveolar lavage fluid [3, 7]: 32.81 ± 18.53*; Content of TNF-α in the lung tissue compared with model group [3, 8]: significantly lower than those in the model group; Level of NO [4]: dose dependence to inhibit the level of NO"
C[C@H](CC[C@@H](O[C@@H]1O[C@H](CO)[C@@H](O)[C@H](O)[C@H]1O[C@@H]1O[C@H](CO)[C@@H](O)[C@H](O)[C@H]1O)C(C)(C)O)[C@H]1CC[C@@]2(C)[C@H]3CC=C4[C@@H](CC[C@H](O[C@@H]5O[C@H](CO[C@@H]6O[C@H](CO)[C@@H](O)[C@H](O)[C@H]6O)[C@@H](O)[C@H](O)[C@H]5O)C4(C)C)[C@]3(C)[C@H](O)C[C@]12C [mogroside IVe],–,–,–,–,fibroblast hyperplasia degree is lower than that in the model group,obviously increased,obviously reduced,"No. of neutrophils in bronchoalveolar lavage fluid [1, 9]: 3.97 ± 3.89* ×10^4; Total No. of cells in bronchoalveolar lavage fluid [1, 9]: 30.84 ± 16.49* ×10^4"
"CC(=O)OCC(=O)[C@@]1(O)CC[C@H]2[C@@H]3CCC4=CC(=O)C=C[C@]4(C)[C@H]3C(=O)C[C@@]21C [prednisone acetate, reference compound]",obviously increased,obviously increased,obviously decreased,the degree of the lesion is relieved than that in the model group,relieved,obviously increased,obviously reduced,–
